# System: carrageenan-induced rat tail thrombosis
# Test: Carrageenan-induced rat tail thrombosis (black tail rate and length)
# Type: in vivo, SD rats
# Conditions: for Black tail rates of rats (%): Aspirin group 7.72 mg/kg intragastric
# Procedure: The carrageenan was weighed and prepared into a carrageenan solution (2%) with a concentration of […] using 0.9% NaCl; rats were weighed and injected with carrageenan subcutaneously at a dose of 80 mg/kg; intragastric administration treatment was performed on a prevention group 5 days in advance; after model making for 30 min, intragastric administration treatment was performed on the remaining four groups other than the prevention group according to relevant doses, and then the rats were placed in a constant temperature environment of (18±2)° C., and free diet and water drinking were provided.
# A total of 42 SD rats were randomly selected for thrombus model making by using carrageenan. The physiological activities of the rats were observed. The normal saline was used as a blank control group, and an aspirin group was used as a positive control group. A polypeptide (the earthworm protein peptide containing four anticoagulant active polypeptides, namely Leu-Val-Thr-Leu-Gly-Asn-Glu, Leu-Leu-Ala-Pro-Pro, Leu-Leu-Pro-Ala-Pro and Thr-Val-Ala-Pro-Phe prepared in Embodiment 1) and relevant medicines were dissolved with normal saline, and the intragastric administration dose was operated according to Table 2 below. […] After injection of carrageenan in each experimental group and normal saline group, rats with different degrees of blood stasis and black tail appeared 3 to 14 hours after model making, and gradually expanded to the tail root. The measured data was processed by spss18.0 software. In order to compare the differences between different groups, one-way analysis of variance was used. […] If P was smaller than 0.05, it indicated there was significant difference. […] The test results are shown in Table 3 and Table 4 below and in FIGS. 9 to 23.
smiles,measurement,setting,value
"CC(=O)Oc1ccccc1C(=O)O [Aspirin, aspirin]",Black tail rates of rats (%),24 h,0%
same,Black tail rates of rats (%),36 h,16.7%
same,Black tail rates of rats (%),48 h,16.7%
same,Black tail rates of rats (%),56 h,16.7%
same,Black tail rates of rats (%),72 h,50%
same,Black tail rates of rats (%),96 h,67%
same,black tail inhibition ratio compared with the normal saline group,"aspirin group (7.72 mg/kg), after 48 hours, FIG. 9",75.8%
same,length of tail thrombogenesis (black tail length),"aspirin group (7.72 mg/kg), after 48 hours, normal saline 100.13 mm",24.24 mm
same,number of rats with obvious black tail signs,"aspirin group, after 72 hours, FIG. 11",three

# Reference: patent US11141454B2, “Application of earthworm protein peptide in preparation of medicine for preventing and/or treating thrombotic disease” (Zhongshiduqing (Shandong) Biotech Co., Ltd., priority 2019, dated 2021)
